Values quoted from earlier work, collected in patent US9353170B2, “Long-acting transient polymer conjugates of exendin” (SANOFI-AVENTIS DEUTSCHLAND GMBH, priority 2007, dated 2016).
Where no end group is shown, it is not given here. PEG 2 kDa = polyethylene glycol, 2 kDa

Legend:
[1] = incubation in a human plasma model
db/db mice = conditions: 10 μg/mouse subcutaneously
normoglycaemic mice = conditions: subcutaneous injection

## N-terminal PEGylation of GLP-1 with only PEG2kDa: GLP-1 N-terminally PEGylated with PEG2kDa (Lee et al. 2005) ({PEG 2 kDa}-HAEGTFTSDVSSYLEGQAAKEFIAWLVKGR; not fully specified (C-terminus); ends and bridges not checked; UniProt P01275 98-127, looked up)
Rat pancreas islets
  activity on stimulating insulin release: nearly completely abolished

## [2-Sulfo-9-fluorenylmethoxycarbonyl]3-exendin-4 [FMS3-exendin-4]
[1]
  time at which cleavage is complete: 40 h
db/db mice
  sustained reduction in blood glucose: 50%
  time of return of blood glucose to baseline value: 45 h

## PEG40 kDa-FMS-exendin-4: transiently PEGylated Exendin-4 based on a traceless FMS-linker (Shechter et al.)
Normoglycaemic mice
  duration of maintained glucose lowering effect: 24 h
  glucose lowering effect: 30%
